Assays:
Cavia porcellus [1] = assay: Compound was administered perorally and evaluated for oral activity in neurokinin A-induced guinea pig dyspnea model at 5 umol/Kg dose; assay type: functional
Substance-K receptor = molecular target: T1, Substance-K receptor (Homo sapiens, UniProt P21452); assay: Displacement of [3H]- NKA from human NK-2 receptor expressed in MEL cells; assay type: cell-based
T1 sequence (P21452 whole entry): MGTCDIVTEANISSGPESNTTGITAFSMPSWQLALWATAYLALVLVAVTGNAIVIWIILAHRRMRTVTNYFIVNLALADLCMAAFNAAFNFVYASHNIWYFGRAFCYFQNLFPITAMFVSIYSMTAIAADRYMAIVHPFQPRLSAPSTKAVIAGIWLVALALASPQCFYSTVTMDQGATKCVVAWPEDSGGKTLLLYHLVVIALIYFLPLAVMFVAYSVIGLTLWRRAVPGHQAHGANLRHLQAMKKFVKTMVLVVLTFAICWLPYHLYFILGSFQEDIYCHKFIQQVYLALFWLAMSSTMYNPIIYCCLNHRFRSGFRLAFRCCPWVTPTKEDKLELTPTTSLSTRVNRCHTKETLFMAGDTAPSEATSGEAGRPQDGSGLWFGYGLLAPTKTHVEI

[2] = molecular target: T2, Substance-K receptor (Cavia porcellus) (UniProt Q64077); assay: Inhibition of [beta-Ala]NKA(4-10)-induced contraction of isolated guinea pig trachea; assay type: functional, tissue-based
T2 sequence (whole entry): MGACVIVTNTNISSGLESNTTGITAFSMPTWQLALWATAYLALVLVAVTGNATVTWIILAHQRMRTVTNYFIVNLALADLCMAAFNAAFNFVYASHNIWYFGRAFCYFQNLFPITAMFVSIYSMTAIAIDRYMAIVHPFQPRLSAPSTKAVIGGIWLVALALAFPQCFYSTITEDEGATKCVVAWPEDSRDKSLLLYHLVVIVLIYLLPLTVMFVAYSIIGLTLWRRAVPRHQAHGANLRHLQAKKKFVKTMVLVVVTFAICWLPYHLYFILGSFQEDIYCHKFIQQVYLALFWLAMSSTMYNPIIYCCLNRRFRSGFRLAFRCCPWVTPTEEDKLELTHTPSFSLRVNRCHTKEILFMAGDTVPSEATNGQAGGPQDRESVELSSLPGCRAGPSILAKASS

Cavia porcellus [3] = assay: Compound was administered perorally and evaluated for oral activity in neurokinin A-induced guinea pig dyspnea model.; assay type: functional
Cavia porcellus [4] = assay: Compound was administered intravenously and evaluated for activity against neurokinin A-induced guinea pig dyspnea model; assay type: functional; settings: iv
Cavia porcellus [5] = assay: Compound was administered perorally (po) and evaluated for oral activity in neurokinin A-induced guinea pig dyspnea model at 5 umol/kg dose; assay type: functional

Row | Structure (SMILES) | inhibition in vivo at 5 µmol/kg (Cavia porcellus [1]) | Ki (Substance-K receptor) | pKB [2] | ED50 (Cavia porcellus [3]) | ED50 (Cavia porcellus [4]) | inhibition in vivo at 5 µmol/kg (Cavia porcellus [5])
1 | CN(CC(CCN1CCC(CCO)CC1)c1ccc(Cl)c(Cl)c1)C(=O)c1ccccc1 (stereo unspecified) | 7% | 47 nM | 8.3 | – | – | –
2 | CCCC(O)(CCC)C1CCN(CCC(CN(C)C(=O)c2ccccc2)c2ccc(Cl)c(Cl)c2)CC1 (stereo unspecified) | – | 4.7 nM | 8.4 | 1.4 µmol/kg | 0.54 µmol/kg | –
3 | CCC(O)(CC)C1CCN(CCC(CN(C)C(=O)c2ccccc2)c2ccc(Cl)c(Cl)c2)CC1 (stereo unspecified) | – | 3.5 nM | 8.8 | – | – | 63%
4 | CCC(=O)C1CCN(CCC(CN(C)C(=O)c2ccccc2)c2ccc(Cl)c(Cl)c2)CC1 (stereo unspecified) | – | 9.2 nM | 8.6 | – | – | –
5 | CCC(O)C1CCN(CCC(CN(C)C(=O)c2ccccc2)c2ccc(Cl)c(Cl)c2)CC1 (stereo unspecified) | – | 13.1 nM | 7.9 | – | – | –
6 | CCC(=NO)C1CCN(CCC(CN(C)C(=O)c2ccccc2)c2ccc(Cl)c(Cl)c2)CC1 (stereo unspecified) | – | 2.7 nM | 9.1 | – | – | –
7 | CC(=O)NCCC1CCN(CCC(CN(C)C(=O)c2ccccc2)c2ccc(Cl)c(Cl)c2)CC1 (stereo unspecified) | – | 66 nM | 7.9 | – | – | –
8 | CC/C(=N/O)C1CCN(CCC(CN(C)C(=O)c2ccccc2)c2ccc(Cl)c(Cl)c2)CC1 (stereo unspecified) | – | 2.1 nM | 8.8 | – | – | –
9 | CCCC(O)C1CCN(CCC(CN(C)C(=O)c2ccccc2)c2ccc(Cl)c(Cl)c2)CC1 (stereo unspecified) | – | 3.7 nM | 7.5 | – | – | –
10 | CN(CC(CCN1CCC(C(C)(C)O)CC1)c1ccc(Cl)c(Cl)c1)C(=O)c1ccccc1 (stereo unspecified) | – | 7.7 nM | 7.5 | – | – | –
11 | CC(=O)NC1(c2ccccc2)CCN(CCC(CN(C)C(=O)c2ccccc2)c2ccc(Cl)c(Cl)c2)CC1 (stereo in doubt; 1) [listing 1 of 2 here] | – | 0.6 nM | – | 1.97 µmol/kg | – | –
12 | CCC(O)(CC)C1CCN(CC[C@H](CN(C)C(=O)c2ccccc2)c2ccc(Cl)c(Cl)c2)CC1 | – | 0.84 nM | 8.1 | 3.49 µmol/kg | 0.4 µmol/kg | –
13 | CC(=O)OCCC1CCN(CCC(CN(C)C(=O)c2ccccc2)c2ccc(Cl)c(Cl)c2)CC1 (stereo unspecified) | – | – | 7.8 | – | – | –
14 | CC(=O)NC1(c2ccccc2)CCN(CCC(CN(C)C(=O)c2ccccc2)c2ccc(Cl)c(Cl)c2)CC1 (stereo in doubt; 2) [listing 1 of 2 here] | – | 1.75 nM | – | – | – | –
15 | CC/C(=N\O)C1CCN(CCC(CN(C)C(=O)c2ccccc2)c2ccc(Cl)c(Cl)c2)CC1 (stereo unspecified) | – | 1.3 nM | 8.8 | – | – | 20%
16 | CC/C(=N\OC)C1CCN(CCC(CN(C)C(=O)c2ccccc2)c2ccc(Cl)c(Cl)c2)CC1 (stereo unspecified) | – | 6.5 nM | 7.6 | – | – | –
17 | CN(CC(CCN1CCC(CO)CC1)c1ccc(Cl)c(Cl)c1)C(=O)c1ccccc1 (stereo unspecified) | 13% | 142 nM | 8 | – | – | –
18 | CC(O)C1CCN(CCC(CN(C)C(=O)c2ccccc2)c2ccc(Cl)c(Cl)c2)CC1 (stereo unspecified) | – | 33.5 nM | 7.8 | – | – | –
19 | CCCC1CCN(CCC(CN(C)C(=O)c2ccccc2)c2ccc(Cl)c(Cl)c2)CC1 (stereo unspecified) | – | 9.9 nM | 7.5 | – | – | –
20 | CC(=O)NC1(c2ccccc2)CCN(CCC(CN(C)C(=O)c2ccccc2)c2ccc(Cl)c(Cl)c2)CC1 (stereo in doubt; 1) [listing 2 of 2 here] | – | – | 9.1 | – | – | –
21 | CC(=O)NC1(c2ccccc2)CCN(CCC(CN(C)C(=O)c2ccccc2)c2ccc(Cl)c(Cl)c2)CC1 (stereo in doubt; 2) [listing 2 of 2 here] | – | – | 9.2 | – | – | –

From ChEMBL document CHEMBL1130898, “4-Alkylpiperidines related to SR-48968: potent antagonists of the neurokinin-2 (NK2) receptor” (Bioorg Med Chem Lett, 1998)
